What all share (assay): relative viability (nuclei count vs DMSO), 5 days (fraction); higher = more cells survive
Compound in assay [1]: COc1cc2nccc(Oc3ccc(NC(=O)C4(C(=O)Nc5ccc(F)cc5)CC4)cc3)c2cc1OC [Cabozantinib] + O=C(CCCCCCC(=O)Nc1ccccc1)NO [Vorinostat] (partner 1 µM)
The gist of the method:
(§1)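 Dosing by pin tool came one day after lung cancer cell lines were seeded in 1536-well plates, using either one drug or a fixed anchor-drug dose plus five library-drug doses (not always all listed) in √10 steps. After 5 days, nuclei were counted on 4× images. Relative viability is treated-well nuclei count divided by vehicle-well nuclei count, and values are medians of duplicate plates.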

Compound in assay [2]: C1=CC(=CC=C1NC(=S)NNC2=C(C=C(C=C2[N+](=O)[O-])C(F)(F)F)[N+](=O)[O-])F [Kobe2602] + Cc1nc(Nc2ncc(C(=O)Nc3c(C)cccc3Cl)s2)cc(N2CCN(CCO)CC2)n1 [Dasatinib] (partner 0.075 µM)
An outline of the steps: as §1

Compound in assay [3]: COc1cc2nccc(Oc3ccc(NC(=O)C4(C(=O)Nc5ccc(F)cc5)CC4)cc3)c2cc1OC [Cabozantinib] + O=C(c1cc(Cc2n[nH]c(=O)c3ccccc23)ccc1F)N1CCN(C(=O)C2CC2)CC1 [Olaparib] (partner 8 µM)
An outline of the steps:
as §1

Compound in assay [4]: COc1cc2nccc(Oc3ccc(NC(=O)C4(C(=O)Nc5ccc(F)cc5)CC4)cc3)c2cc1OC [Cabozantinib] + Cc1cc(Nc2cc(N3CCN(C)CC3)nc(Sc3ccc(NC(=O)C4CC4)cc3)n2)n[nH]1 [Tozasertib] (partner 0.1 µM)
The gist of the method:
as §1

We go through one cell line from the supplement of paper PMC10307832.

For UMC-11, the relative viability in assay [1] (first compound 0.02 µM) was determined as 0.302; in assay [1] (first compound 0.06325 µM) it was 0.336; in assay [1] (first compound 0.2 µM) it was 0.37; in assay [1] (first compound 0.6325 µM) it was 0.323; in assay [1] (first compound 2 µM), 0.332; in assay [2] (first compound 0.2 µM) it was 0.49. Moreover, the relative viability in assay [2] (first compound 0.6325 µM) was 0.449; in assay [2] (first compound 2 µM), 0.449; in assay [2] (first compound 6.325 µM), 0.451; in assay [2] (first compound 20 µM), 0.452; in assay [3] (first compound 0.02 µM) it was 0.399; in assay [3] (first compound 0.06325 µM) it was 0.304. Further, the relative viability in assay [3] (first compound 0.2 µM) was determined as 0.502; in assay [3] (first compound 0.6325 µM), 0.312; in assay [3] (first compound 2 µM), 0.391; in assay [4] (first compound 0.02 µM), 0.192; in assay [4] (first compound 0.06325 µM), 0.2; in assay [4] (first compound 0.2 µM), 0.203. Further, the relative viability in assay [4] (first compound 0.6325 µM) turned out to be 0.204; in assay [4] (first compound 2 µM), 0.202.
